Laboratory results published in patent US5968487A (L'Oreal, priority 1996, dated 1999).

Molecular target: T1, human melanocyte tyrosinase (Homo sapiens, UniProt P14679)
T1 construct: endogenous in cells; host or cells: cultured human melanocytes (Triton X-100 / ultrasound extract after 3 days' culture with the compound)
T1 sequence (P14679 19-529): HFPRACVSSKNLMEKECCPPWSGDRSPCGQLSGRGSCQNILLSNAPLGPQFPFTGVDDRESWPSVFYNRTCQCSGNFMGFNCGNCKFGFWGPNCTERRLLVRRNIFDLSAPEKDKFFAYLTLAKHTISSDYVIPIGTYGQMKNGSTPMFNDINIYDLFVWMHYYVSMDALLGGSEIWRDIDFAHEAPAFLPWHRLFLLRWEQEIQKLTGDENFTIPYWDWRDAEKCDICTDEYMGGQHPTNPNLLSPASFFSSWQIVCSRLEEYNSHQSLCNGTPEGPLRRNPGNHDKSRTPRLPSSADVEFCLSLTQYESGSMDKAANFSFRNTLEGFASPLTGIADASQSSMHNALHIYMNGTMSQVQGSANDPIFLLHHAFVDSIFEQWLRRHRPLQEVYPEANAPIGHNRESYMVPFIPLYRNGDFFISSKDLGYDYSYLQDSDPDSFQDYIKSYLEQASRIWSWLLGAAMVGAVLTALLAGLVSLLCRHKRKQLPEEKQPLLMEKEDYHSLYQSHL
Experiment: dopa-oxidase activity of human melanocyte tyrosinase after 3-day culture of melanocytes with the compound
Format: cell-based
Details: human melanocytes cultured three days with compound; lysate + 5 mM L-dopa, absorbance at 475 nm (dopachrome), 25° C., 60 minutes; read-out: IC50, concentration of active product required to obtain a 50% inhibition of the production of melanin
Method: After three days, the melanocytes were "trypsinized" in a mixture of trypsin/0.05% EDTA/0.02% in a phosphate buffer (50 mM at pH 6.8), washed three times in phosphate buffer containing 1% (w/v) Triton X-100 and subjected to ultrasound. After centrifugation, samples were taken and mixed with 5 mM L-dopa in phosphate buffer. The tyrosinase activity was evaluated by spectrophotometry by measuring the increase in the absorbance at 475 nm due to the formation of dopachrome from 5 mM dopa. The absorbance was read on a microplate reader at 25° C. for 60 minutes.
The activity of the cellular tyrosinase is measured relative to a standard range prepared with commercial tyrosinase.
The value of IC50, i.e., the concentration of active product required to obtain a 50% inhibition of the production of melanin, is determined.

## O=C1NC(C(=O)OCc2cc(=O)c(O)co2)CS1 (stereo not shown) [5-hydroxy-4-oxo-4H-pyran-2-ylmethyl 2-oxothiazolidine-4-carboxylate]
  IC50: 200 to 300 µM
